# “And” between values parts separate entries of the source, which are not always exact repeats. Equal values may be shown once. Inconclusive results and toxic doses are left out. Where a SMILES comes first, the peptide text is derived from it. The star is where a group is joined. Boc = CC(C)(C)OC(=O)*
# Test system: B6C3F1 mice, B16 melanoma ip, median survival T/C
# Assay: NCI In Vivo Anticancer Drug Screen. Data for tumor model B16 Melanoma (intraperitoneal) in B6C3F1 mice
# Settings: endpoint: median survival time, higher = longer survival
# Outline: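 Antitumor effect was judged in mice with transplanted tumors by dividing the treated group's survival measure by that of vehicle controls.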
# [1] = dose: 25.0 mg/kg/injection, schedule: Q01DX009 (ip), vehicle: saline with Tween-80
# [2] = dose: 50.0 mg/kg/injection, schedule: Q01DX009 (ip), vehicle: saline with Tween-80
# [3] = dose: 100.0 mg/kg/injection, schedule: Q01DX009 (ip), vehicle: saline with Tween-80
# [4] = dose: 50.0 mg/kg/injection, schedule: Q01DX009 (ip), vehicle: Klucel (hydroxypropylcellulose) (HPC)
# [5] = dose: 100.0 mg/kg/injection, schedule: Q01DX009 (ip), vehicle: Klucel (hydroxypropylcellulose) (HPC)
# [6] = dose: 200.0 mg/kg/injection, schedule: Q01DX009 (ip), vehicle: Klucel (hydroxypropylcellulose) (HPC)
# [7] = dose: 400.0 mg/kg/injection, schedule: Q01DX009 (ip), vehicle: Klucel (hydroxypropylcellulose) (HPC)
# [8] = dose: 12.5 mg/kg/injection, schedule: Q01DX009 (ip), vehicle: saline with Tween-80
# [9] = dose: 200.0 mg/kg/injection, schedule: Q01DX009 (ip), vehicle: saline with Tween-80
# [10] = dose: 12.5 mg/kg/injection, schedule: Q01DX009 (ip), vehicle: Klucel (hydroxypropylcellulose) (HPC)
# [11] = dose: 25.0 mg/kg/injection, schedule: Q01DX009 (ip), vehicle: Klucel (hydroxypropylcellulose) (HPC)
# [12] = dose: 6.25 mg/kg/injection, schedule: Q01DX009 (ip), vehicle: Klucel (hydroxypropylcellulose) (HPC)
compound,measurement,setting,value
NC(C(=O)O)c1ccc(CBr)cc1 (configuration not stated),T/C,"dose: 6.0 mg/kg/injection, schedule: Q01DX009 (ip), vehicle: saline with Tween-80",114 % of control
same,T/C,"dose: 6.25 mg/kg/injection, schedule: Q01DX009 (ip), vehicle: saline with Tween-80",111 % of control
same,T/C,[1],159 % of control
same,T/C,[2],155 % of control and 165 % of control
same,T/C,[3],150 % of control and 183 % of control
CSCCC(NC(=O)C(CC(C)C)NC(=O)OC(C)(C)C)C(N)=O (stereo not drawn) (Boc-Leu-Met-NH2; configuration not given here),T/C,[4],86 % of control
same,T/C,[5],98 % of control and 102 % of control
same,T/C,[6],97 % of control and 100 % of control
same,T/C,[7],101 % of control
COC(=O)c1ccc(O)cc1,T/C,[8],92 % of control
same,T/C,[1],103 % of control
same,T/C,[2],106 % of control
same,T/C,[3],117 % of control
same,T/C,[9],101 % of control
same,T/C,"dose: 400.0 mg/kg/injection, schedule: Q01DX009 (ip), vehicle: saline with Tween-80",96 % of control
O=c1c(O)c(O)c1=O.[NH2-].[NH2-].[NH2-].[NH2-].[NH2-].[Ru+5],T/C,"dose: 3.12 mg/kg/injection, schedule: Q01DX009 (ip), vehicle: saline",110 % of control
same,T/C,"dose: 3.75 mg/kg/injection, schedule: Q01DX009 (ip), vehicle: saline",104 % of control
same,T/C,"dose: 6.25 mg/kg/injection, schedule: Q01DX009 (ip), vehicle: saline",120 % of control
same,T/C,"dose: 10.42 mg/kg/injection, schedule: Q01DX009 (ip), vehicle: saline",122 % of control
same,T/C,"dose: 25.0 mg/kg/injection, schedule: Q01DX009 (ip), vehicle: saline",87 % of control
CC[C@@]1(O)C[C@H](OC2CC(N(C)C)C(OC3CC(O)C(O[C@@H]4O[C@@H](C)C(=O)C=C4N)C(C)O3)C(C)O2)c2c(cc3c(c2O)C(=O)c2c(O)ccc(O)c2C3=O)[C@H]1C(=O)OC (some centres not stated),T/C,"dose: 0.02 mg/kg/injection, schedule: Q01DX001 (ip), vehicle: suspension in saline",102 % of control
same,T/C,"dose: 0.05 mg/kg/injection, schedule: Q01DX001 (ip), vehicle: suspension in saline",111 % of control
same,T/C,"dose: 0.1 mg/kg/injection, schedule: Q01DX001 (ip), vehicle: suspension in saline",111 % of control
same,T/C,"dose: 0.19 mg/kg/injection, schedule: Q01DX009 (ip), vehicle: saline",121 % of control
same,T/C,"dose: 0.2 mg/kg/injection, schedule: Q01DX001 (ip), vehicle: suspension in saline",116 % of control
same,T/C,"dose: 0.4 mg/kg/injection, schedule: Q01DX001 (ip), vehicle: suspension in saline",121 % of control
same,T/C,"dose: 0.75 mg/kg/injection, schedule: Q01DX009 (ip), vehicle: saline",153 % of control
same,T/C,"dose: 0.8 mg/kg/injection, schedule: Q01DX001 (ip), vehicle: suspension in saline",121 % of control
same,T/C,"dose: 1.5 mg/kg/injection, schedule: Q01DX009 (ip), vehicle: saline",173 % of control
same,T/C,"dose: 3.0 mg/kg/injection, schedule: Q01DX009 (ip), vehicle: saline",179 % of control
same,T/C,"dose: 3.2 mg/kg/injection, schedule: Q01DX001 (ip), vehicle: suspension in saline",152 % of control
C/C=C/C=C/c1cc2cc3c(c(O)c2c(=O)[nH]1)C1(CC3)C(O)=c2c(=O)c3c(=O)cc(OC)c(=O)c=3c(=O)c2=C1O (configuration not stated),T/C,"dose: 0.75 mg/kg/injection, schedule: Q01DX009 (ip), vehicle: Klucel (hydroxypropylcellulose) (HPC)",114 % of control and 117 % of control
same,T/C,"dose: 1.5 mg/kg/injection, schedule: Q01DX009 (ip), vehicle: Klucel (hydroxypropylcellulose) (HPC)",114 % of control and 107 % of control
same,T/C,"dose: 3.0 mg/kg/injection, schedule: Q01DX009 (ip), vehicle: Klucel (hydroxypropylcellulose) (HPC)",116 % of control
same,T/C,"dose: 6.0 mg/kg/injection, schedule: Q01DX009 (ip), vehicle: Klucel (hydroxypropylcellulose) (HPC)",115 % of control
same,T/C,"dose: 12.0 mg/kg/injection, schedule: Q01DX009 (ip), vehicle: Klucel (hydroxypropylcellulose) (HPC)",115 % of control
Nc1nc(N)c2cc(S(=O)(=O)c3ccccc3)ccc2n1,T/C,[1],88 % of control
same,T/C,[2],103 % of control and 105 % of control
same,T/C,[9],153 % of control and 171 % of control
COc1cccc2c1C(=O)c1c(O)c3c(c(O)c1C2=O)CC(O)(C(=O)CO)CC3OC1CC(N)C(O)C(C)O1 (configuration not stated),T/C,"dose: 4.1 mg/kg/injection, schedule: Q01DX001 (ip), vehicle: other",108 % of control
same,T/C,"dose: 4.5 mg/kg/injection, schedule: Q01DX009 (ip), vehicle: water",209 % of control
same,T/C,"dose: 6.9 mg/kg/injection, schedule: Q01DX001 (ip), vehicle: other",114 % of control
same,T/C,"dose: 9.0 mg/kg/injection, schedule: Q01DX009 (ip), vehicle: water",219 % of control
same,T/C,"dose: 11.5 mg/kg/injection, schedule: Q01DX001 (ip), vehicle: other",118 % of control
same,T/C,"dose: 18.0 mg/kg/injection, schedule: Q01DX009 (ip), vehicle: water",234 % of control
same,T/C,"dose: 19.2 mg/kg/injection, schedule: Q01DX001 (ip), vehicle: other",123 % of control
same,T/C,"dose: 36.0 mg/kg/injection, schedule: Q01DX009 (ip), vehicle: water",156 % of control
ClCCCCCCCCCCc1ccccc1,T/C,[10],91 % of control
same,T/C,[11],94 % of control
same,T/C,[4],91 % of control
same,T/C,[5],93 % of control
same,T/C,[6],90 % of control
same,T/C,[7],89 % of control
C[PH+](C)C.C[PH+](C)C.[Au],T/C,"dose: 0.31 mg/kg/injection, schedule: Q01DX009 (ip), vehicle: Klucel (hydroxypropylcellulose) (HPC)",115 % of control
same,T/C,"dose: 0.62 mg/kg/injection, schedule: Q01DX009 (ip), vehicle: Klucel (hydroxypropylcellulose) (HPC)",117 % of control
same,T/C,"dose: 1.25 mg/kg/injection, schedule: Q01DX009 (ip), vehicle: Klucel (hydroxypropylcellulose) (HPC)",114 % of control
same,T/C,"dose: 2.5 mg/kg/injection, schedule: Q01DX009 (ip), vehicle: Klucel (hydroxypropylcellulose) (HPC)",112 % of control
O=C(NC(Cc1cccc(F)c1)C(=O)O)c1ccccc1 (configuration not stated),T/C,"dose: 6.25 mg/kg/injection, schedule: Q01DX009 (ip), vehicle: other",104 % of control
same,T/C,"dose: 12.5 mg/kg/injection, schedule: Q01DX009 (ip), vehicle: other",110 % of control
same,T/C,"dose: 25.0 mg/kg/injection, schedule: Q01DX009 (ip), vehicle: other",99 % of control
same,T/C,"dose: 50.0 mg/kg/injection, schedule: Q01DX009 (ip), vehicle: other",88 % of control
O=C1NC(=O)C2C3C=CC(C12)C1C2C(=O)NC(=O)C2C31 (configuration not stated),T/C,[8],108 % of control and 100 % of control
same,T/C,"dose: 19.7 mg/kg/injection, schedule: Q01DX009 (ip), vehicle: water",107 % of control
same,T/C,[1],114 % of control and 104 % of control
same,T/C,"dose: 32.9 mg/kg/injection, schedule: Q01DX009 (ip), vehicle: water",98 % of control
same,T/C,[2],117 % of control
same,T/C,"dose: 54.8 mg/kg/injection, schedule: Q01DX009 (ip), vehicle: water",117 % of control
same,T/C,[3],120 % of control and 124 % of control
CC1(C)CC(=O)C(CSC(=O)c2ccccc2)C(=O)C1,T/C,"dose: 1.56 mg/kg/injection, schedule: Q01DX009 (ip), vehicle: Klucel (hydroxypropylcellulose) (HPC)",94 % of control
same,T/C,"dose: 3.12 mg/kg/injection, schedule: Q01DX009 (ip), vehicle: Klucel (hydroxypropylcellulose) (HPC)",97 % of control and 99 % of control
same,T/C,[12],98 % of control
same,T/C,[10],93 % of control
COc1cc(C(=O)c2cc3c(cc2C)OCO3)cc(OC)c1OC,T/C,[12],94 % of control
same,T/C,[10],100 % of control
same,T/C,[11],108 % of control
same,T/C,[4],117 % of control and 106 % of control
CC(NC(=O)C(Cc1cnc[nH]1)NC(=O)OCc1ccccc1)C(=O)O (configuration not stated),T/C,[5],98 % of control
same,T/C,[6],104 % of control
same,T/C,[7],98 % of control
CC(=O)OC1=NC(C)c2c1cc(OC(C)=O)[nH]c2=O (configuration not stated),T/C,[12],116 % of control and 105 % of control
same,T/C,[10],110 % of control and 98 % of control
same,T/C,[11],113 % of control and 100 % of control
same,T/C,[4],90 % of control and 101 % of control
same,T/C,[5],88 % of control
CCCC(NC(=O)C(C)N)C(=O)O (configuration not stated),T/C,[4],106 % of control
same,T/C,[5],112 % of control
same,T/C,[6],92 % of control
same,T/C,[7],98 % of control
C/C=C(\C)c1cc(=O)c2c(C)cc3c(c2o1)C(=O)c1c(O)c(C2CC(C)(N(C)C)C(OC(C)=O)C(C)O2)cc(C2CC(N(C)C)C(O)C(C)O2)c1C3=O (configuration not stated),T/C,"dose: 0.15 mg/kg/injection, schedule: Q01DX009 (ip), vehicle: saline",110 % of control
same,T/C,"dose: 0.15 mg/kg/injection, schedule: Q01DX009 (ip), vehicle: suspension in saline",102 % of control
same,T/C,"dose: 0.31 mg/kg/injection, schedule: Q01DX009 (ip), vehicle: suspension in saline",114 % of control
same,T/C,"dose: 0.62 mg/kg/injection, schedule: Q01DX009 (ip), vehicle: suspension in saline",109 % of control

# From PubChem BioAssay AID200 (DTP/NCI, 2004)
